Records with an inconclusive call do not appear.
Test system: Clone20 osteoblast Shn3 3'UTR firefly luciferase, 24 h
Assay: Schnurri-3 3'UTR-luciferase signal suppressors – cell-based, Clone20 osteoblasts, luminescence, dry powder, set 2, dose response (AID 743417)

SMILES | AC50
Cc1ccc(-c2nc(NC(=O)c3nn(C)cc3[N+](=O)[O-])sc2C)cc1C | 2250 nM
O=C1C=CC(O)(c2cc(=O)c3c(O)cc(O)cc3o2)C=C1 | 5120 nM
CCCC(=O)N1CCN(c2ccc(NC(=O)c3ccc([N+](=O)[O-])o3)cc2Cl)CC1 | 700 nM
Cc1cccc(CS(=O)(=O)c2ncc(Cl)c(C(=O)Nc3ccc(F)cc3)n2)c1 | 550 nM
CCCCCn1c(=O)c(C(=O)NC(C)c2ccccc2)c(O)c2ccccc21 (configuration not stated) | 11700 nM
CCOC(=O)C1CCN(C(=O)c2ccc(OCC(=O)Nc3cccc(C(F)(F)F)c3)c(OC)c2)CC1 | 1750 nM
Cc1ccc(CS(=O)(=O)c2ncc(Cl)c(C(=O)Nc3nnc(C)s3)n2)cc1 | 639 nM
CCOc1cc2c(cc1OCC)-n1cccc1C(c1ccc(C(C)C)cc1)NC2 (configuration not stated) | 7220 nM
CCC(=O)NC(c1ccc(OC)c(OC)c1)c1cc(Cl)c2cccnc2c1O (configuration not stated) | < 260 nM
CC(=O)N1c2ccc(S(=O)(=O)N3CCC(C(=O)N4CCN(c5cc(Cl)ccc5C)CC4)CC3)cc2CC1C (configuration not stated) | 3100 nM
O=C(Nc1cccc(-c2ccc(N3CCCCC3)nn2)c1)C(F)(F)F | 9070 nM
COC(=O)[C@@]12CCCCN1[C@H](c1ccc(SC3CCCCC3)c(OC)c1)[C@@H]1C(=O)N(C)C(=O)[C@@H]12 | 21400 nM
CCCC(=O)NC(c1cccc([N+](=O)[O-])c1)c1ccc2cccnc2c1O (configuration not stated) | 1750 nM
C=CCn1c(-c2ccc(S(=O)(=O)N3CCOCC3)cc2)csc1=Nc1ccccc1 | 1520 nM
CCCCN1CC(COCc2ccccc2)Oc2cccc(Oc3cc(C)c(C)c(C)c3)c2S1(=O)=O (configuration not stated) | 9160 nM
Cc1cc(C)c2nc(NNC(=O)c3ccc(S(=O)(=O)N4CC(C)CC(C)C4)cc3)sc2c1 (configuration not stated) | 2280 nM
COc1ccc2c(c1OC)C(=O)N1c3ccccc3C(=O)N(c3ccccc3F)C21 (configuration not stated) | 11600 nM
CC(C)(C)n1nnnc1C(c1ccc(C(F)(F)F)cc1)N(Cc1ccc(F)cc1)Cc1ccco1 (configuration not stated) | 10100 nM
Cc1sc2ncnc(NC3CCN(Cc4ccccc4)CC3)c2c1C | 1020 nM
O=C(Nc1ccccc1Cc1ccccc1)c1ccccc1NS(=O)(=O)c1ccc(Cl)s1 | 8180 nM
O=C(CN(C(=O)c1ccc(Cl)cc1)C1CCCCC1)Nc1ccc(Cl)c([N+](=O)[O-])c1 | 8110 nM
O=C(Cn1cc(C(=O)c2ccco2)c2ccccc21)Nc1ccccc1F | 2600 nM
CCOc1ccc(CCN2C(=S)N([C@@H](CC(C)C)CN3CCCC3CN3C(=S)NC[C@@H]3Cc3ccc(O)cc3)C[C@@H]2Cc2ccc(O)cc2)cc1 (some centres not stated) | 11500 nM
CCN(CC)S(=O)(=O)c1ccc(S(=O)(=O)Nc2c(C)nn(C)c2C)cc1 | 2240 nM
O=C(Nc1ccc(N2CCN(C(=O)c3ccc(Cl)cc3)CC2)cc1)c1ccc2c(c1)OCCO2 | 2540 nM
Cc1csc(NC(=O)Cc2nn(C)c(=O)c3ccccc23)n1 | 6820 nM

SMILES | AC50
C[C@]12CC[C@H](O)CC1=CCC1C2CC[C@@]2(C)C1CCC21OCCO1 (some centres not stated) | 27300 nM
Cc1ccc(-n2ncc3c(N4CCN(c5ccc(F)cc5)CC4)ncnc32)c(C)c1 | 3240 nM
Nc1cc(Cl)c2nonc2c1[N+](=O)[O-] | 5370 nM
CC1(C)CC[C@]2(C(=O)n3ccnc3)CC[C@]3(C)[C@H](C(=O)C=C4[C@@]5(C)C=C(C#N)C(=O)C(C)(C)[C@@H]5CC[C@]43C)[C@@H]2C1 | < 260 nM
O=C(CSc1nnc(-c2cccnc2)s1)Nc1ccnc2ccccc12 | 661 nM
COc1cc(CSc2nnnn2-c2ccc(C)cc2)cc(OC)c1OC | 1020 nM
CN(C(=O)COc1ccccc1C(=O)NCCOc1ccccc1)c1ccccc1 | 1570 nM
CC1(Cc2ccc(OC(F)(F)F)cc2)C(=O)Nc2c(Cl)ccc(Cl)c21 (configuration not stated) | 25700 nM
COc1cc(C#Cc2c(-c3cncn3C)n(C)c3ccc(-c4ccc(OC)nc4)cc23)cc(OC)c1 | 20500 nM
CCOC(=O)C1CCN(C(=O)c2sc3nc(C)nc(N4CCC(C)CC4)c3c2C)CC1 | 5260 nM
CN(C(=O)OC(C)(C)C)c1ccc(-c2nc3ccccc3s2)cc1 | < 260 nM
CN(Cc1nccs1)C(=O)c1cc(COc2cccc3cnccc23)on1 | 2770 nM
CCN(CC)c1ccc2c(c1)oc(=O)c1c(Cl)cc(=O)oc12 | 2220 nM
O=C(c1ccc(Cl)cc1)C1CCCN(Cc2cccc3ncccc23)C1 (configuration not stated) | 4520 nM
COc1ccc(OCc2cccc(C(=O)O)c2)cc1 | 1390 nM
CCN1C(=O)C(=Cc2cccc(OC)c2Oc2ccc([N+](=O)[O-])cc2[N+](=O)[O-])SC1=S | 1890 nM
Cc1ccccc1OCCn1cc(C(=S)N2CCCC2)c2ccccc21 | 24300 nM
O=C(Nc1nc(-c2ccccn2)cs1)c1ccc(Br)s1 | 1000 nM
O=c1[nH]c(Nc2nc3ccccc3o2)nc2c1CCCC2 | 7710 nM
CN(CC(=O)Nc1cccc(S(=O)(=O)N2CCOCC2)c1)CC(=O)Nc1ccc(Cl)c(C(F)(F)F)c1 | 2400 nM
C/C(Cl)=C\Cn1c(NCCc2ccccc2)nc2c1c(=O)n(C)c(=O)n2C | 283 nM
O=C(c1ccc(Cn2c(=S)[nH]c3ccccc3c2=O)cc1)N1CCN(c2ccccn2)CC1 | 6340 nM
COc1cccc(CNCCc2c[nH]c3ccccc23)c1OCc1ccccc1 | 4090 nM
Cc1nc2scc(C)n2c(=O)c1S(=O)(=O)Nc1ccc(N2CCOCC2)c(Cl)c1 | 1670 nM
Cc1nc(SCC(=O)Nc2nc3ccccc3s2)c(C#N)c(C)c1C | < 260 nM
N=c1n(Cc2ccc(Cl)cc2)c2ccccc2n1CC(O)COc1ccccc1 (configuration not stated) | 2340 nM

SMILES | AC50
NC(=O)c1cc(N2C(=O)C=CC2=O)ccc1Cl | 11300 nM
Cn1nc(-c2ccccn2)nc2c(=O)n(C)c(=O)nc1-2 | 493 nM
Cc1ccc(NC(=O)CSc2ccc3c(c2)OCCO3)c(O)c1 | 343 nM
O=C(NCCc1ccccc1)c1ccc2c(c1)OCCCO2 | 1050 nM
CC(O)CC(=O)OC[C@]12CC[C@H]3[C@@](C)(CC[C@H]4C(C)(C)CCC[C@]34C)[C@@H]1CC(C1=CC(=O)OC1O)O2 (some centres not stated) | 3750 nM
CCCCC(=O)NC(c1ccc(Cl)cc1)c1ccc2cccnc2c1O (configuration not stated) | 772 nM
CC(C)(C)c1ccc(NC(=O)COc2ccc(-n3ccnc3)cc2)cc1 | 5270 nM
CN(C)CC(C(=O)c1ccccc1)c1ccccc1 (configuration not stated) | 2800 nM
O=C(OC12CC3CC(CC(C3)C1)C2)c1ccc(NCc2cc(O)ccc2O)cc1 | 2330 nM
O=C(NCc1cccnc1)/C(=C\c1ccc(-c2ccc(Br)cc2)o1)S(=O)(=O)c1ccccc1 | 6330 nM
C=C1CC(COc2ccc3c(C)c(Cl)c(=O)oc3c2)(c2ccccc2)OC1=O (configuration not stated) | 4820 nM
CC(=O)NC(c1cccs1)c1cc(F)c2cccnc2c1O (configuration not stated) | 1670 nM
Oc1c(CN2CCOCC2)cc(COCc2ccccc2)c2cccnc12 | 1280 nM
CN(Cc1ccc(OCC(O)CN2CCCCC2)cc1)Cc1ccnc2ccccc12 (configuration not stated) | 1210 nM
CC(C)(C)c1cc(C(=O)N/N=C/c2ccccc2O)n(-c2ccccc2)n1 | 2250 nM
CC(C)(C)c1ccc(CN(Cc2ccccc2)C(c2ccccn2)c2nnnn2C(C)(C)C)cc1 (configuration not stated) | 13500 nM
Cc1cc(Cl)n2c(nc3cc(F)c(F)cc32)c1C#N | 3560 nM
CCc1nc(N)nc(N)c1-c1ccc(N(C)Cc2ccccc2)c([N+](=O)[O-])c1 | < 260 nM
Cc1c(C(=O)N(Cc2cccc(Br)c2)C2CCS(=O)(=O)C2)oc2ccccc12 (configuration not stated) | 35900 nM
Cc1cc(C)n2nc(SCC(=O)c3cc(C)n(-c4cc(C)on4)c3C)nc2n1 | 2460 nM
O=C(Nc1ccc(Cl)cc1)/C(=C/c1cccc(O)c1)c1nc2ccccc2s1 | 3530 nM
N#CC(c1ccc(Cl)cc1)c1ccc2c(C(F)(F)F)cc(C(F)(F)F)nc2n1 (configuration not stated) | 487 nM
Cc1ccc(-c2nc(NC(=O)c3nn(C)cc3[N+](=O)[O-])sc2C)cc1 | 1300 nM
COc1ccccc1Cc1c(-c2ccco2)nc2c(C)cc(Br)cn12 | 1900 nM
CCCN(CCC)S(=O)(=O)c1ccc(C(=O)Nc2nnc(-c3cc(OC)cc(OC)c3)o2)cc1 | 2640 nM
Oc1ccc(CN2CCc3ccccc3C2)c2cccnc12 | 673 nM

SMILES | AC50
COCOCCn1cc(CN2CCS(=O)(=O)N(Cc3ccc(-c4ccc(Cl)c(Cl)c4)cc3)C(C(C)C)C2=O)nn1 (configuration not stated) | 1350 nM
Cc1ccc(OCCN2CCN(c3ncnc4sc(C)c(C)c34)CC2)cc1 | 754 nM
CCN1CCN(Cc2ccc(NC(=O)c3cc(NC(=O)c4cncc(-c5cccs5)c4)cc(OC)c3)cc2C(F)(F)F)CC1 | 9680 nM
CCc1ccc(OCCNc2cc(N3CCNC(C)C3)ccc2[N+](=O)[O-])cc1 (configuration not stated) | 15600 nM
CC[C@H](C)C(=O)O[C@H]1C[C@@H](C)C=C2C=C[C@H](C)[C@H](CC[C@@H]3C[C@@H](O)CC(=O)O3)[C@H]21 | 1620 nM
Cc1ccnc(SCC(=O)Nc2sc3c(c2C#N)CCCC3)n1 | 955 nM
COc1ccc(CC(N)c2csc(NC(=O)Nc3ccc(C(C)C)cc3)n2)cc1 (configuration not stated) | 5160 nM
Cn1nc(-c2ccc(Cl)cc2)c2cc(C(=O)N3CCN(c4ccccn4)CC3)sc21 | 4020 nM
CC1C(=O)N(Cc2cn(CCC3OCCCO3)nn2)CCS(=O)(=O)N1Cc1ccc(-c2ccc(Cl)c(Cl)c2)cc1 (configuration not stated) | 3390 nM
Cc1nc([N+](=O)[O-])c(Br)n1CC(=O)c1ccc2ccccc2c1 | 10600 nM
COc1cc(NC(=O)Cn2ncc(Cl)c(Cl)c2=O)c(C)cc1[N+](=O)[O-] | 3440 nM
Cn1cc(CN(CCO)Cc2cccs2)c(-c2cccc(Cl)c2)n1 | 3250 nM
O=C(Nc1cccc(F)c1)c1cc(S(=O)(=O)NCCC2=CCCCC2)ccc1F | 4160 nM
CCOc1ccc(C(=O)C(CCC(CN(C)C)C(=O)c2ccc(OCC)cc2)CN(C)C)cc1 (configuration not stated) | 1610 nM
CCCn1c(C)cc(C(=O)CN2C(=O)c3ccccc3S2(=O)=O)c1C | 2980 nM
O=C(c1ccc(Br)cc1)C(CN1CCOCC1)c1ccccc1 (configuration not stated) | 9400 nM
COc1ccc(OC)c(NC(=O)CN(Cc2ccc(F)cc2)C2CCCCC2)c1 | 4990 nM
CCN(CC)S(=O)(=O)c1cccc(NC(=O)CNc2cccc(S(=O)(=O)N3CCCC3)c2)c1 | 317 nM
CC[C@H]1CN2CCc3cc(OC)c(OC)cc3[C@@H]2C[C@@H]1C[C@H]1NCCc2cc(OC)c(OC)cc21 | < 260 nM
N=c1n(Cc2ccccc2)c2ccccc2n1CC(O)COc1ccc(Cl)cc1Cl (configuration not stated) | 2890 nM
CCCCNc1nc2c(c(=O)n(C)c(=O)n2C)n1Cc1cccc(OC)c1 | 284 nM
CC(C)(C)c1ccc(C(=O)NCCCN2CCN(CCCNC(=O)c3ccc(C(C)(C)C)cc3)CC2)cc1 | 4840 nM
CCCCN(C(C)=O)c1ccc2c(c1)C1CC2CCN1C(=O)OCc1ccccc1 (configuration not stated) | 1370 nM
CCN(CC)CC(C)(C)C(=O)/C=C/c1ccc(/C=C/C(=O)C(C)(C)CN(CC)CC)cc1 | 468 nM
